Data from article PMC6943578, “Isolation of Novel ACE-Inhibitory and Antioxidant Peptides from Quinoa Bran Albumin Assisted with an In Silico Approach: Characterization, In Vivo Antihypertension, and Molecular Docking” (Molecules, 2019).
Like-named read-outs stand apart in the source and are kept apart here. Where a SMILES comes first, the peptide text is derived from it.

How the values were obtained:
ACE (from rabbit lung) = biological target: T1, ACE (from rabbit lung) (Oryctolagus cuniculus, UniProt P12822); assay: ACE-inhibitory activity, HHL substrate, spectrophotometric; format: biochemical; settings: synthetic peptide, 37 °C, 1 h, absorbance at 228 nm, from regression of % inhibition vs concentration, repeated at least three times
T1 construct: ACE (from rabbit lung) were purchased from Sigma-Aldrich Co; purchased Sigma-Aldrich Co; host or cells: rabbit lung tissue
T1 sequence (P12822 34-1310): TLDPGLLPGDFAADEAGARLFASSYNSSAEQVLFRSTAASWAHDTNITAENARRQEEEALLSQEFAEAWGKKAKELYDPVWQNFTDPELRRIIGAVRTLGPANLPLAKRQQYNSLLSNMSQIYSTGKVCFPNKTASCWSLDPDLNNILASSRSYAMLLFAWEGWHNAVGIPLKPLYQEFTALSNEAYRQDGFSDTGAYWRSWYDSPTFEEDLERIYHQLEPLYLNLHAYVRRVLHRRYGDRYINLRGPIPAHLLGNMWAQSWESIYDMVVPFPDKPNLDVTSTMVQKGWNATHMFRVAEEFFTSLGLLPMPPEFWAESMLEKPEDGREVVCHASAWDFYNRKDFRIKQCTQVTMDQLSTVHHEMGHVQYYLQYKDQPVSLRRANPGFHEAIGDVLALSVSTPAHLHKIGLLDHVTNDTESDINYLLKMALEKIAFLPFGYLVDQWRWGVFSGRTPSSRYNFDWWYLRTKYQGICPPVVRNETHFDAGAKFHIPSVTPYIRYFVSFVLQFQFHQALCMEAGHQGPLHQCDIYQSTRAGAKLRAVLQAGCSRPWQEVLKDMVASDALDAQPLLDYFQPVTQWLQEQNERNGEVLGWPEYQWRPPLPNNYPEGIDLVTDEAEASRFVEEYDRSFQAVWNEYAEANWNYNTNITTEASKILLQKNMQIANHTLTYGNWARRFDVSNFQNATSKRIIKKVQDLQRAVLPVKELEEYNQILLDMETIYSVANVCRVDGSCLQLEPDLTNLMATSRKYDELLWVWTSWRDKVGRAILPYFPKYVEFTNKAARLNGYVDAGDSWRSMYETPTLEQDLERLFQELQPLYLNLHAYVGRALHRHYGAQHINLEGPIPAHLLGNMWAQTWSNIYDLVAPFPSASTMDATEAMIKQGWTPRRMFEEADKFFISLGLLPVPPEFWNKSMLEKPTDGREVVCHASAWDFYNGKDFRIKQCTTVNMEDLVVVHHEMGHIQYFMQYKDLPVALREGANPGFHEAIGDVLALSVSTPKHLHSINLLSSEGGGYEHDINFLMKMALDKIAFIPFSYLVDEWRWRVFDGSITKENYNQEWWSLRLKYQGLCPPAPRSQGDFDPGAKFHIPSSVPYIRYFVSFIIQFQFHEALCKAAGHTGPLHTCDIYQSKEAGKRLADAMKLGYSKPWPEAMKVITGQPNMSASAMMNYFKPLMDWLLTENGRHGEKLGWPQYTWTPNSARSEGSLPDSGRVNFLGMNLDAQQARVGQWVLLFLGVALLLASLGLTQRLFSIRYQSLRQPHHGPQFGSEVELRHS
Protocol: The ACE-inhibitory activity was evaluated using HHL as a substrate by monitoring the released hippuric acid using a spectrophotometric method. Briefly, the reaction system comprised 50 µL of ACE (25 mU), 150 µL of 8.3 mM HHL, and 50 µL of sample solutions. After incubation in a shaking water bath (37 °C) for 1 h, 1 M HCl (250 µL) was added to stop the reaction. The hippuric acid formed was subsequently extracted by 1.4 mL ethyl acetate. After centrifugation, 1 mL of the supernatant was collected and evaporated at 80 °C for 60 min in a vacuum. The residue was then dissolved in 2 mL of distilled water and the absorbance at 228 nm was read. The inhibitory activity was calculated as follows:(1) ACE inhibition % = 1− AS/AC ×100, where AC is the absorbance of the ACE solution without an inhibitor and AS is the absorbance of the mixture-contained samples. The IC50 value, the inhibitor concentration required to inhibit half the ACE activity, was acquired by nonlinear regression from a plot of percentage ACE inhibition versus different inhibitor concentrations.

[1] = tested on: spontaneously hypertensive rats (SHRs); assay: Body weight of SHRs during administration; format: in vivo, rat; settings: oral 50, 100, 150 mg/kg once daily, five weeks; p > 0.05
Protocol: Following the method indicated by Zou et al. [26] with some modifications, 20 male SHRs (10 weeks, 230 ± 20 g body weight (bw)) were purchased from Vital River Laboratory Animal Technology Co., Ltd (Beijing, China). After conditioning for one week, the rats were divided into five groups of four rats each. […] High dosage group (150 mg/kg body weight once daily), middle dosage group (100 mg/kg body weight once daily), and low dosage group (50 mg/kg body weight once daily) were orally given the peptide dissolved in 0.9% saline solution via gastric intubation. All of the treatments were conducted for five consecutive weeks. Each week, the systolic blood pressure (SBP) and diastolic blood pressure (DBP) of the rats were measured with a non-invasive blood-pressure apparatus (BP-300A Non-Invasive Blood Pressure Monitoring System, Chengdu, China). The body weight and heart rate of the rats were determined at the same time. At least five readings were recorded and averaged out.

[2] = read-out: ABTS·+ scavenging ability IC50; cited from earlier work
From the text: ABTS·^+ scavenging activity represents the total antioxidant activity of potential antioxidants. […] Moreover, the presence of hydrophobic amino ...

[3] = cited from earlier work
From the text: The presence of some metal ions like Fe^2+ and Cu^2+ can extremely accelerate the oxidative chain reaction of oil and induce the production of more various radicals. […] It was pointed out that amino acid residues such as Pro, Phe, and Arg in the side chain could act a ...

ACE = tested on: ACE; set-up: method as in 2 sources, one per row (each row's own in cited_ref): ref 6 = [6]; PMID 28317757; doi:10.1016/j.foodchem.2017.02.039; 6. Lee S.Y. Hur S.J. Antihypertensive peptides from animal products, marine organisms, and plants Food Chem. 2017 228 506 517 10.1016/j.foodchem.2017.02.039 28317757 ||| ref 25, 30, 31 = [25]; PMID 30229250; doi:10.1039/C8FO00569A; 25. Ling Y. Sun L.P. Zhuang Y.L. Preparation and identification of novel inhibitory angiotensin-I-converting enzyme peptides from tilapia skin gelatin hydrolysates: inhibition kinetics and molecular d || [30]; doi:10.1016/j.lwt.2018.12.059; 30. Bhaskara B. Ananthanarayana L. Jamdar S. Purification, identification, and characterization of novel angiotensin I converting enzyme (ACE) inhibitory peptides from alcalase digested horse gram flo || [31]; doi:10.1016/j.lwt.2016.08.047; 31. Wang X. Chen H. Fu X. Li S. Wei J. A novel antioxidant and ACE inhibitory peptide from rice bran protein: Biochemical characterization and molecular docking study LWT-Food Sci. Technol. 2017 75 93; settings: peptides from tilapia skin gelatin, horse gram protein, rice bran protein; read-out: IC50 of ACE-inhibitory activity; cited from earlier work
From the text: With the help of databases AHTPDB and BIOPEP, and based on the similarity to the already reported ACE-inhibitory and antioxidant peptides, three peptides, namely […]

With `CC[C@H](C)[C@H](NC(=O)[C@@H](NC(=O)[C@H](CCC(N)=O)NC(=O)CNC(=O)[C@@H](N)CCCNC(=N)N)C(C)C)C(=O)N[C@@H](Cc1ccc(O)cc1)C(=O)N[C@H](C(=O)N[C@@H](CC(C)C)C(=O)O)C(C)C` (H-RGQVIYVL-OH) the IC50 (ACE (from rabbit lung)) was 38.2 µM and the “Side effect on SHRs (heart rate and body weight vs negative control)” value [1] was “no obvious side effect”.

In the case of “HPLDSLCL [literature antioxidant peptide]”, the IC50 [2] is given as 74.4 µM.

In the case of “Leu-Ala-Arg-Leu [literature peptide from tilapia gelatin]”, the “Fe2+ chelating ability” value ([3]; at 1 mg/mL, peptide from tilapia gelatin) is given as 46.53%.

In the case of QLLLQQ, the IC50 (ACE) is given as 75 µM.

In the case of VGLPNSR, the IC50 (ACE) is listed as 80.9 µM.

In the case of “VTSLDLPVLRW [literature antioxidant peptide]”, the IC50 [2] is listed as 661 µM.

For “YYIVS [literature peptide from sweet potato protein]”, the “Fe2+ chelating ability” value ([3]; at 3 mg/mL, peptide from sweet potato protein) is listed as 59.74%.
